# Tests used:
# Type in all cases: biochemical
# [1] = target: T1, EGFR (Homo sapiens, UniProt P00533); assay: Kinase inhibition assay (33P transfer), EGFR; conditions: Table 2, kinase inhibition class; for IC50: read-out: EGFR-1
# T1 construct: Kinases are expressed as either kinase domains or full length constructs; made in house
# Procedure, shortened: (§1)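 IC50: inhibitor concentration lowering 33P incorporation into immobilised substrate by 50%. Label transferred from ATP to poly(Glu,Tyr) 4:1 or poly(Arg,Ser) 3:1 is measured after a 0.5% phosphoric acid wash by liquid scintillation.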
# [2] = target: T2, IGFR-1 (Homo sapiens, UniProt P08069); assay: Kinase inhibition assay (33P transfer), IGFR-1; conditions: Table 2, kinase inhibition class
# T2 construct: Kinases are expressed as either kinase domains or full length constructs; made in house
# [3] = target: T3, c-Met (Homo sapiens, UniProt P08581); assay: Kinase inhibition assay (33P transfer), c-Met; conditions: Table 2, kinase inhibition class; for IC50: read-out: Met-1
# T3 construct: Kinases are expressed as either kinase domains or full length constructs; made in house
# Procedure, shortened: as §1
# [4] = target: T4, Itk (Homo sapiens, UniProt Q08881); assay: Kinase inhibition assay (33P transfer), Itk; conditions: Table 3; for IC50: read-out: Itk-1
# T4 construct: Kinases are expressed as either kinase domains or full length constructs; made in house
# T4 sequence (Q08881 1-620): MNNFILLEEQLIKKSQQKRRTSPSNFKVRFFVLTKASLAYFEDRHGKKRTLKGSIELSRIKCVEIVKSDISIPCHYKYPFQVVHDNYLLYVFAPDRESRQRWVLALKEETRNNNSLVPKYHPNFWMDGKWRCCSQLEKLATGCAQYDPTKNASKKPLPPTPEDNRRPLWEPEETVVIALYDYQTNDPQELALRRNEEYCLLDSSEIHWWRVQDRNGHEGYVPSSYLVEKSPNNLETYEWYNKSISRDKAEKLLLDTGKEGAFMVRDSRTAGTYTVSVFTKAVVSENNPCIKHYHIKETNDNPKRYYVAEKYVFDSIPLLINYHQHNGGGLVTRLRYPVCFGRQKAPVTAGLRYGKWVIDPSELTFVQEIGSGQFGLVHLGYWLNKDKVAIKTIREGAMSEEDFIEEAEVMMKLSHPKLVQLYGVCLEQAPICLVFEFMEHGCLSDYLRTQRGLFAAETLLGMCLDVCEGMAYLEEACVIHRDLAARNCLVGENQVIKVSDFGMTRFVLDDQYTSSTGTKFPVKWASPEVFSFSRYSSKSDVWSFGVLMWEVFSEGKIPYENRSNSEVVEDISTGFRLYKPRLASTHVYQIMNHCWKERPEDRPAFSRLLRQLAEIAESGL
# Procedure, shortened: as §1
# [5] = target: T5, Fyn (Homo sapiens, UniProt P06241); assay: Kinase inhibition assay (33P transfer), Fyn; conditions: for IC50: read-out: Fyn-1
# T5 construct: Kinases are expressed as either kinase domains or full length constructs; made in house
# Procedure, shortened: as §1
# [6] = target: T6, Hck-1 (Homo sapiens, UniProt P08631); assay: Kinase inhibition assay (33P transfer), Hck; conditions: Table 6, Hck-1 kinase inhibition class
# T6 construct: Kinases are expressed as either kinase domains or full length constructs; made in house
# [7] = target: T7, EPHB4 (Homo sapiens, UniProt P54760); assay: Kinase inhibition assay (33P transfer), EPHB4; conditions: for IC50: read-out: EPHB4-1
# T7 construct: Kinases are expressed as either kinase domains or full length constructs; made in house
# T7 sequence (P54760 16-987): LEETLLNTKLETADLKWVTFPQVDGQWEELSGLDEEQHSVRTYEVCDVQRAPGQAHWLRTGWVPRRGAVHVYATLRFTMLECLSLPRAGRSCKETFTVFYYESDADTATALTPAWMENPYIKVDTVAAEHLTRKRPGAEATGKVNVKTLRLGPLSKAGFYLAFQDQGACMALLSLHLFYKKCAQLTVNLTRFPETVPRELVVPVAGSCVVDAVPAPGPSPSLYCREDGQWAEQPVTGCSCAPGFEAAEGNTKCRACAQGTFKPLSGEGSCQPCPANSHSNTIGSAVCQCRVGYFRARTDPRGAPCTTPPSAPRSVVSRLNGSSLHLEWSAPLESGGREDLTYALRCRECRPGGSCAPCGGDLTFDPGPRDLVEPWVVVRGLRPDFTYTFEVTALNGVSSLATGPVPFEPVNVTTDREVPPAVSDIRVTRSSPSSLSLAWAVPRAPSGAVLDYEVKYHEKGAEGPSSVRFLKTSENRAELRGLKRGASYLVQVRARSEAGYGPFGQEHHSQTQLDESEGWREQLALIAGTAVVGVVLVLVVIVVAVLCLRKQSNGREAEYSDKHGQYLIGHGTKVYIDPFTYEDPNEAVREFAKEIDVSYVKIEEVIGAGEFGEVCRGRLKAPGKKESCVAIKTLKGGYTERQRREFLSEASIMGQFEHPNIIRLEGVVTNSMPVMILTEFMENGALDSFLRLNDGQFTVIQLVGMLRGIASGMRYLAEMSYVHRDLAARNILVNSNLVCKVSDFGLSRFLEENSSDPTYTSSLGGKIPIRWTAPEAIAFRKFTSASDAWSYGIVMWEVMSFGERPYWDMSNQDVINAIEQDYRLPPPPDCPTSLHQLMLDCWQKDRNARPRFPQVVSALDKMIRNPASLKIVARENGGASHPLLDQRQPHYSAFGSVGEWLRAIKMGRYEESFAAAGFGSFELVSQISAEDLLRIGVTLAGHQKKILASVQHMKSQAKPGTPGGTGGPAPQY
# [8] = target: T8, Src (Homo sapiens, UniProt P12931); assay: Kinase inhibition assay (33P transfer), Src; conditions: Table 6, Src-1 kinase inhibition class
# T8 construct: Kinases are expressed as either kinase domains or full length constructs; made in house
# Procedure, shortened: as §1
# [9] = target: T9, ErbB4 (Homo sapiens, UniProt Q15303); assay: Kinase inhibition assay (33P transfer), ErbB4; conditions: read-out: ErbB4-1
# T9 construct: Kinases are expressed as either kinase domains or full length constructs; made in house
# T9 sequence (Q15303 26-1308, species assumed): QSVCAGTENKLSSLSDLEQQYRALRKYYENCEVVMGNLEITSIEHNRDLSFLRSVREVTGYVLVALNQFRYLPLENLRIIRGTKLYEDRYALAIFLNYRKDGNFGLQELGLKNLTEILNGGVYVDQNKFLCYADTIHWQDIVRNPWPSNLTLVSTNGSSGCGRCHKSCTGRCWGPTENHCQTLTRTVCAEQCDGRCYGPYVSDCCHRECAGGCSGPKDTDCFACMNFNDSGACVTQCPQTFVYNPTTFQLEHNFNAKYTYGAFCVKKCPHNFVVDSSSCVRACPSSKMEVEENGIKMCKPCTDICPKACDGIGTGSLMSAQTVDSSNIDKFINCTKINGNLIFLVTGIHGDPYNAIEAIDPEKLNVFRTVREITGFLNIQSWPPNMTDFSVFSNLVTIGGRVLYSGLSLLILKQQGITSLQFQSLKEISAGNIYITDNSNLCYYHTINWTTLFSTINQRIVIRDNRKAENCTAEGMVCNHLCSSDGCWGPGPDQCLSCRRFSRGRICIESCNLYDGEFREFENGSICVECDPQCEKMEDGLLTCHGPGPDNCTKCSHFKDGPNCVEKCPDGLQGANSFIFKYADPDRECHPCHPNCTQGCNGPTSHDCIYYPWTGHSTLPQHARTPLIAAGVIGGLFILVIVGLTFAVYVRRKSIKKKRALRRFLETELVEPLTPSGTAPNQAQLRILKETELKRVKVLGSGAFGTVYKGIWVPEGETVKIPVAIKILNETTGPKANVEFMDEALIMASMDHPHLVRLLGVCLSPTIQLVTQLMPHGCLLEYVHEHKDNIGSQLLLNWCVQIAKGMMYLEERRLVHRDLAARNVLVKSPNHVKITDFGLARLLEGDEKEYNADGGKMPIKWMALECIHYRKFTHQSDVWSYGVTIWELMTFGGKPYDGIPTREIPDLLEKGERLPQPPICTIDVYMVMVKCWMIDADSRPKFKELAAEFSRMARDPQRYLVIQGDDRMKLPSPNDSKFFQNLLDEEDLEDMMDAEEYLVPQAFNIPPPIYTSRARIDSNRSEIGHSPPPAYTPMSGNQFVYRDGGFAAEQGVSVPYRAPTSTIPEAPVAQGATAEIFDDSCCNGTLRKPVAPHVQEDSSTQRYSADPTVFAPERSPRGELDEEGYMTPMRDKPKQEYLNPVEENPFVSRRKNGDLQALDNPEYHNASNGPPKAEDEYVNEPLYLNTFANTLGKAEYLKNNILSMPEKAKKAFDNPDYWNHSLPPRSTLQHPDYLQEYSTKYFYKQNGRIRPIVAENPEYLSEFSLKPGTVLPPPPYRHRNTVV
# T1 sequence (P00533 25-1210, species assumed): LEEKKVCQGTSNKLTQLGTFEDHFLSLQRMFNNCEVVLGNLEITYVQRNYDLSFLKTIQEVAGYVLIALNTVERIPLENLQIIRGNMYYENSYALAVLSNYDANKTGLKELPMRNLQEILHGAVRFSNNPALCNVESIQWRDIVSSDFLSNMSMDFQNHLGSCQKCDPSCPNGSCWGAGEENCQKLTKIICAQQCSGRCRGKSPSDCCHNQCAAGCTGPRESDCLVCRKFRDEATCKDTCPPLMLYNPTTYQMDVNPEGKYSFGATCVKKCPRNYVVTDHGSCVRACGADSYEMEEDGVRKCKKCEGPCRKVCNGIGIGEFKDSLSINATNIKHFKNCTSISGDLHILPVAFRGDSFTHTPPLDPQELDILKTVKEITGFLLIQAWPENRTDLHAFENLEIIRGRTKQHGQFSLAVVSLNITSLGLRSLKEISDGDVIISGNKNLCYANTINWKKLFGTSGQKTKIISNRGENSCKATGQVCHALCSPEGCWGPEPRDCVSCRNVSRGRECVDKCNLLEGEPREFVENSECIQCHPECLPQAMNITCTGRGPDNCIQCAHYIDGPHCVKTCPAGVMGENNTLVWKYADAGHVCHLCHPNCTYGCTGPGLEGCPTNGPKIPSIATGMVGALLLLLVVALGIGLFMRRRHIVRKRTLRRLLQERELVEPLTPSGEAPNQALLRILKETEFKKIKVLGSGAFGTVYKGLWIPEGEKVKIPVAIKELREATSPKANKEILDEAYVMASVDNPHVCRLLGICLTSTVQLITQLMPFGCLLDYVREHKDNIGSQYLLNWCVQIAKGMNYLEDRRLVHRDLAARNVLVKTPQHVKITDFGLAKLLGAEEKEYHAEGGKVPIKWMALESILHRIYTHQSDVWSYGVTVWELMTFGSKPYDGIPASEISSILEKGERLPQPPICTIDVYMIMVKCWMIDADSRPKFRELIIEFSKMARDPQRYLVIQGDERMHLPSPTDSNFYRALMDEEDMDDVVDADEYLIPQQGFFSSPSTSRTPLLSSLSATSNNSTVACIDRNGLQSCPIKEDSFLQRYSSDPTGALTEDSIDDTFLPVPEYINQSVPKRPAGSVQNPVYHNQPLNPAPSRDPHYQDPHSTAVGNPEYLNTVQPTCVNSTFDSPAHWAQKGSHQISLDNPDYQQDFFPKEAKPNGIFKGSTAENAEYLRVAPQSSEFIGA
# T3 sequence (P08581 25-1390): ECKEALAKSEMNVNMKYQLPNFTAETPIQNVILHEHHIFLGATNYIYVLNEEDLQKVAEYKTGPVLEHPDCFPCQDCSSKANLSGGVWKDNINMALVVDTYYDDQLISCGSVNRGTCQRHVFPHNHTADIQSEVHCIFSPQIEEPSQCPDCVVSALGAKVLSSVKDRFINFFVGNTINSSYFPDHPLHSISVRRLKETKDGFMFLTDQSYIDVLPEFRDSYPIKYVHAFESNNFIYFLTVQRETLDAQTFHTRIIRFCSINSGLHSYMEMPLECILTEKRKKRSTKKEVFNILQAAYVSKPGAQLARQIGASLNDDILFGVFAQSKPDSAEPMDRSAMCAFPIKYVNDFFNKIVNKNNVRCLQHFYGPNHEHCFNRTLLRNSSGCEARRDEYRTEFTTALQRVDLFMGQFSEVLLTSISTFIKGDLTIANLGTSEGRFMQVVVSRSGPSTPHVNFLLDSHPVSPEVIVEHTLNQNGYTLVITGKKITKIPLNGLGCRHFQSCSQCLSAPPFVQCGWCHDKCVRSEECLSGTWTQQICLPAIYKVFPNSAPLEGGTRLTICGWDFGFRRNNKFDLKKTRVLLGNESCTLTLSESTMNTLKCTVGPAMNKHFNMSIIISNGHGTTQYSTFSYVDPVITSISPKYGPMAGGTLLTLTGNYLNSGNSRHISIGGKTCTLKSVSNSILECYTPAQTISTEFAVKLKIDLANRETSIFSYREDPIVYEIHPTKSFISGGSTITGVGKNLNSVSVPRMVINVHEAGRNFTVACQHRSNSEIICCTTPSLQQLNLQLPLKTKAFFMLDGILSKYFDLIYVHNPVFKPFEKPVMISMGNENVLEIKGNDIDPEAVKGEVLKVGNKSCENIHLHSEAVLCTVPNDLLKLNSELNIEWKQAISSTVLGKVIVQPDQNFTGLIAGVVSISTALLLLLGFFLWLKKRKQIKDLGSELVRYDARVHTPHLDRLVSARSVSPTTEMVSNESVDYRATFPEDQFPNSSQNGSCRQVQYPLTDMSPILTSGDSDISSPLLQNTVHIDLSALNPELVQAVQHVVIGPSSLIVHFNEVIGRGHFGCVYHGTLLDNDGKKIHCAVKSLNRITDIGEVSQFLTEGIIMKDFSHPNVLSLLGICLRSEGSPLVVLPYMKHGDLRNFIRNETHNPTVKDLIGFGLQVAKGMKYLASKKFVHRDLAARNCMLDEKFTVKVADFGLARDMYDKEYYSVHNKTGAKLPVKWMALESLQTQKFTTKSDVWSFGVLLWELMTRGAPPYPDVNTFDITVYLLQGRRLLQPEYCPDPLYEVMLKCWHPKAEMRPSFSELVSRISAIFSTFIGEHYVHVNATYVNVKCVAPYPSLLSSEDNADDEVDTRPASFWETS
# T8 sequence (P12931 whole entry, species assumed, the tested form may be a part): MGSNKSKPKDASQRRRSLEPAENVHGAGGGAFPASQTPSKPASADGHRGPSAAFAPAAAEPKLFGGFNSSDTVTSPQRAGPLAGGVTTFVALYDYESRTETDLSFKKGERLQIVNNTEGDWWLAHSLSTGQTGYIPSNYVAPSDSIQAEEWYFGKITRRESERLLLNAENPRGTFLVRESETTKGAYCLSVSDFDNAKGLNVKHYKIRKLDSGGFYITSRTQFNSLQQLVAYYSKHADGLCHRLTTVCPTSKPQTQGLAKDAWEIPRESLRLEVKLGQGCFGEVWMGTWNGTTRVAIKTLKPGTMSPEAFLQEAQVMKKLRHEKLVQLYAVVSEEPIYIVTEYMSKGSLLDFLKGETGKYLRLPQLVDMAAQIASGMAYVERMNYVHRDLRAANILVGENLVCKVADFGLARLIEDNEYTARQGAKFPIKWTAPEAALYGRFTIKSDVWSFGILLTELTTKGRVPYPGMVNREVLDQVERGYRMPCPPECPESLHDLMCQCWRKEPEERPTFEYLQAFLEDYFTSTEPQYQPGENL
# T6 sequence (P08631 whole entry, the tested form may be a part): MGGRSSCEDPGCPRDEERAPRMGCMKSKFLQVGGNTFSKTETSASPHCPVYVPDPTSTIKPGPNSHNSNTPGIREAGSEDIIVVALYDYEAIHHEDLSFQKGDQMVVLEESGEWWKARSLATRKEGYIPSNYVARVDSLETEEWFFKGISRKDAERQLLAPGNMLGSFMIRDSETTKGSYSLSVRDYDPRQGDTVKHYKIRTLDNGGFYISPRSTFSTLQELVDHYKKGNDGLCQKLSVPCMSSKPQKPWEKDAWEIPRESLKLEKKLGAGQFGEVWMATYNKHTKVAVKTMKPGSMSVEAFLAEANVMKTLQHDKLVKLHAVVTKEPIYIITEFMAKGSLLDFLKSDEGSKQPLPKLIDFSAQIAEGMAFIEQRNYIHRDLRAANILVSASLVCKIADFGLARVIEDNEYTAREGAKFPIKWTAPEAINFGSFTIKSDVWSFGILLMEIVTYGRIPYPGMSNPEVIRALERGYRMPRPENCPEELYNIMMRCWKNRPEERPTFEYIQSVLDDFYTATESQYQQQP
SMILES,EGFR-1 [1],IGFR-1 [2],Met-1 [3],Itk-1 [4],Fyn-1 [5],Hck-1 [6],EPHB4-1 [7],Src-1 [8],IC50 [1] [µM],IC50 [2] [µM],IC50 [3] [µM],IC50 [4] [µM],IC50 [5] [µM],IC50 [6] [µM],IC50 [7] [µM],IC50 [8] [µM],IC50 [9] [µM]
COc1ccc(Nc2ncnc(Nc3cc(OC)c(OC)c(OC)c3)n2)cn1 [Compound 28],B (B>0.4 and <2.4 ug/mL),B (B>0.4 and <2.4 ug/mL),E (E>4.5 ug/mL),E (E>4.5 ug/mL),B (B>0.4 and <2.4 ug/mL),E (E>4.5 ug/mL),B (B>0.4 and <2.4 ug/mL),B (B>0.4 and <2.4 ug/mL),,,,,,,,,
COc1ccc(Nc2ncnc(Nc3cc(OC)c(OC)c(OC)c3)n2)cc1OC [Compound 36],,,,,,,,,8.47 to 10.9,> 10.9,> 10.9,> 10.9,> 10.9,> 10.9,8.47 to 10.9,> 10.9,
COc1cc(Nc2ncnc(Nc3ccc(Br)cc3F)n2)cc(OC)c1OC [Compound 41],,,,,,,,,< 0.888,0.888 to 5.33,5.33 to 7.77,7.77 to 9.99,0.888 to 5.33,> 9.99,0.888 to 5.33,0.888 to 5.33,> 9.99
COc1cc(Nc2ncnc(N(C/C=C/c3ccccc3)c3ccc(Cl)cc3)n2)cc(OC)c1OC [Compound 56],,,,,,,,,< 0.794,6.94 to 8.93,> 8.93,> 8.93,> 8.93,> 8.93,> 8.93,> 8.93,> 8.93
COc1cc(Nc2ncnc(Nc3ccc(C(=O)O)cc3)n2)cc(OC)c1OC [Compound 104],,,,,,,,,1.01 to 6.04,6.04 to 8.81,> 11.3,> 11.3,1.01 to 6.04,> 11.3,< 1.01,6.04 to 8.81,
COc1ccc(N(C)c2ncnc(Nc3cc(OC)c(OC)c(OC)c3)n2)cc1 [Compound 106],,,,,,,,,1.01 to 6.04,6.04 to 8.81,1.01 to 6.04,> 11.3,,,1.01 to 6.04,,6.04 to 8.81
Cc1cccc(Nc2ncnc(Nc3ccc(O)cc3)n2)c1 [Compound 107],,,,,,,,,< 1.36,1.36 to 8.18,8.18 to 11.9,1.36 to 8.18,< 1.36,11.9 to 15.3,1.36 to 8.18,< 1.36,8.18 to 11.9
COc1ccc(Nc2ncnc(Nc3cccc(C)c3)n2)cc1OC [Compound 108],,,,,,,,,< 1.19,7.11 to 10.4,> 13.3,> 13.3,1.19 to 7.11,> 13.3,> 13.3,1.19 to 7.11,10.4 to 13.3
Cc1cccc(Nc2ncnc(Nc3cccc(Br)c3)n2)c1 [Compound 109],,,,,,,,,< 1.12,> 12.6,> 12.6,> 12.6,,,> 12.6,,> 12.6
Cc1cccc(Nc2ncnc(Nc3ccc4[nH]ccc4c3)n2)c1 [Compound 110],,,,,,,,,< 1.26,1.26 to 7.59,11.1 to 14.2,7.59 to 11.1,< 1.26,7.59 to 11.1,11.1 to 14.2,< 1.26,1.26 to 7.59
COc1ccc(Nc2ncnc(Nc3ccc(N(C)C)cc3)n2)cc1OC [Compound 114],,,,,,,,,> 12.3,6.55 to 9.55,> 12.3,> 12.3,,,> 12.3,,
COc1ccc(Nc2ncnc(Nc3ccc4[nH]ccc4c3)n2)cc1OC [Compound 115],,,,,,,,,< 1.1,1.1 to 6.62,> 12.4,9.66 to 12.4,6.62 to 9.66,> 12.4,9.66 to 12.4,6.62 to 9.66,> 12.4
C#Cc1cccc(Nc2ncnc(Nc3ccc(OC)c(OC)c3)n2)c1 [Compound 116],,,,,,,,,< 1.15,1.15 to 6.91,> 13,> 13,> 13,> 13,> 13,> 13,> 13
COc1cc(Nc2ncnc(N3CCc4ccccc43)n2)cc(OC)c1OC [Compound 184],,,,,,,,,> 11.9,> 11.9,9.22 to 11.9,> 11.9,1.05 to 6.33,> 11.9,6.33 to 9.22,1.05 to 6.33,
COc1cc(Nc2ncnc(N3CCCCC3)n2)cc(OC)c1OC [Compound 207],,,,,,,,,> 13,> 13,> 13,> 13,,,> 13,,
COc1cc(Nc2ncnc(Nc3ccc4c(c3)OCO4)n2)cc(OC)c1OC [Compound 252],,,,,,,,,1.01 to 6.04,< 1.01,> 11.3,6.04 to 8.81,1.01 to 6.04,> 11.3,1.01 to 6.04,< 1.01,
COc1cc(Nc2ncnc(Nc3cc(OC)c(OC)c(OC)c3)n2)cc(OC)n1 [Compound 253],,,,,,,,,5.79 to 8.45,> 10.9,> 10.9,> 10.9,> 10.9,> 10.9,> 10.9,< 0.965,
COc1ccc(Nc2ncnc(-n3c(N)nc4ccccc43)n2)cc1O [Compound 286],,,,,,,,,6.87 to 10,< 1.14,1.14 to 6.87,1.14 to 6.87,> 12.9,> 12.9,6.87 to 10,10 to 12.9,
COc1cc(Nc2ncnc(-n3cc(C)c4ccccc43)n2)cc(OC)c1OC [Compound 323],,,,,,,,,> 11.5,> 11.5,8.94 to 11.5,> 11.5,> 11.5,> 11.5,> 11.5,> 11.5,
COc1cc(Nc2ncnc(-n3c(N)nc4ccccc43)n2)ccc1OCCn1ccnn1 [Compound 324],,,,,,,,,> 10.1,< 0.9,> 10.1,0.9 to 5.4,> 10.1,> 10.1,> 10.1,> 10.1,
COCCOc1ccc(Nc2ncnc(Nc3cc(-c4ccco4)n[nH]3)n2)cc1OCCOC [Compound 328],,,,,,,,,0.856 to 5.13,< 0.856,< 0.856,0.856 to 5.13,5.13 to 7.49,5.13 to 7.49,> 9.63,0.856 to 5.13,
COc1ccc(Nc2ncnc(Nc3ccc(Oc4ccccc4)cc3)n2)cc1OC [Compound 929],,,,,,,,,< 0.963,8.42 to 10.8,< 0.963,0.963 to 5.78,,,> 10.8,,0.963 to 5.78
COc1cc(Nc2ncnc(-c3ccccc3)n2)cc(OC)c1OC [Compound 970],,,,,,,,,> 13.3,> 13.3,> 13.3,> 13.3,10.3 to 13.3,> 13.3,> 13.3,> 13.3,

# From US7074789B2, “Kinase inhibitors” (Amgen Inc., priority 1999, dated 2006)
